Assay results reported in patent US11465993B2, “Water soluble novel cyanine fluorophore with tunable properties between near IR and SWIR region for in vivo imaging” (The USA, as represented by the Secretary, Department of …, priority 2018, dated 2022).

How the values were obtained:
[1] = Absorbance spectra of cyanine fluorophores in different solvents (absorbance maximum, molar absorptivity)
[2] = Emission (fluorescence) spectra of cyanine fluorophores in different solvents
[3] = Solubility and aggregation in PBS, serum or organic solvent; settings: for aggregation: PBS and serum; for solubility: medium as stated in the value
[4] = pH 7.4 PBS, excitation wavelength per compound (figure legends)
[5] = pH 7.4 PBS, at wavelength of maximum absorbance

Row | SMILES | absorbance maximum (λmax, abs) ([1]; 10% (v/v) FBS in pH 7.4 PBS) | molar absorptivity (ε) ([1]; 10% (v/v) FBS in pH 7.4 PBS) | absorbance maximum (λmax, abs) ([1]; methanol) | molar absorptivity (ε) ([1]; methanol) | absorbance maximum (λmax, abs) ([1]; pH 7.4 PBS) | emission maximum (λmax, emiss) ([2]; 10% (v/v) FBS in pH 7.4 PBS) | emission maximum (λmax, emiss) ([2]; methanol) | emission maximum (λmax, emiss) [2, 4] | molar absorptivity (ε) [1, 5] | aggregation [3] | solubility [3] | absorbance maximum (λmax, abs) ([1]; acetonitrile) | emission maximum (λmax, emiss) ([2]; acetonitrile) | absorbance maximum (λmax, abs) ([1]; 0.1% formic acid in acetonitrile) | emission maximum (λmax, emiss) ([2]; 0.1% formic acid in acetonitrile, excitation at 800 nm) | absorbance maximum (λmax, abs) ([1]; dichloromethane) | molar absorptivity (ε) ([1]; dichloromethane) | emission maximum (λmax, emiss) ([2]; dichloromethane)
1 | CC1(C)C(/C=C/C2=C3Oc4ccccc4OC4=C3C(CC2)CC/C4=C\C=C2\N(CCCCS(=O)(=O)[O-])c3ccccc3C2(C)C)=[N+](CCCCS(=O)(=O)[O-])c2ccccc21.[Na+] (centres unmarked) [BisSO3-NIR-890] | 877 nm | 187,000 M^−1cm^−1 | 860 nm | 275,000 M^−1cm^−1 | 689 nm | 900 nm | 890 nm | 890 nm | – | – | – | – | – | – | – | – | – | –
2 | CC1(C)C(/C=C/C2=C3Oc4ccc(C(=O)O)cc4OC4=C3C(CC2)CC/C4=C\C=C2\N(CCCCS(=O)(=O)[O-])c3ccc(S(=O)(=O)[O-])cc3C2(C)C)=[N+](CCCCS(=O)(=O)[O-])c2ccc(S(=O)(=O)[O-])cc21.[Na+].[Na+].[Na+] (centres unmarked) [Compound 6] | 868 nm | 192,000 M^−1cm^−1 | 866 nm | 208,000 M^−1cm^−1 | 860 nm | 896 nm | 896 nm | 896 nm | 191,000 M^−1cm^−1 | only moderate aggregation | – | – | – | – | – | – | – | –
3 | CC1(C)C(/C=C/C2=C3C4=C(/C(=C/C=C5/N(CCCCS(=O)(=O)O)c6ccc(S(=O)(=O)[O-])cc6C5(C)C)CCC4CC2)c2cc(C(=O)O)ccc23)=[N+](CCCCS(=O)(=O)O)c2ccc(S(=O)(=O)O)cc21.N.N.N (centres unmarked) [Compound 8] | 1062 nm | 99,000 M^−1cm^−1 | 1072 nm | 117,000 M^−1cm^−1 | 1058 nm | 1086 nm | 1103 nm | 1084 nm | 70,000 M^−1cm^−1 | – | water-soluble | – | – | – | – | – | – | –
4 | CC1(C)C(/C=C/C2=C3Oc4ccc(C(=O)N(CCCS(=O)(=O)O)CCC(=O)O)cc4OC4=C3C(CC2)CC/C4=C\C=C2\N(CCCCS(=O)(=O)O)c3ccc(S(=O)(=O)[O-])cc3C2(C)C)=[N+](CCCCS(=O)(=O)O)c2ccc(S(=O)(=O)O)cc21.N.N.N.N (centres unmarked) [Compound 10] | 871 nm | 137,000 M^−1cm^−1 | 869 nm | 187,000 M^−1cm^−1 | 862 nm | 900 nm | 896 nm | 896 nm | 145,000 M^−1cm^−1 | eliminated aggregation in both PBS and serum | – | – | – | – | – | – | – | –
5 | CN1/C(=C/C=C2\CCC3CCC(C=O)=C4C3=C2c2ccccc24)C(C)(C)c2ccccc21 (centres unmarked) [Compound 23] | – | – | – | – | – | – | – | – | – | – | – | 600 nm | 780 nm | – | – | – | – | –
6 | CN1/C(=C/C=C2\CCC3CCC(/C=C/C4=[N+](C)c5ccccc5C4(C)C)=C4C3=C2c2ccccc24)C(C)(C)c2ccccc21 (centres unmarked) [Compound 25] | – | – | 1066 nm | – | – | – | 1110 nm | – | – | – | – | – | – | – | – | – | – | –
7 | CCCC/N=C/C1=C2C3=C(/C(=C/C=C4/N(C)c5ccccc5C4(C)C)CCC3CC1)c1ccccc12 (centres unmarked) [Compound 26] | – | – | – | – | – | – | – | – | – | – | – | 540 nm | 720 nm | 872 nm | 906 nm | – | – | –
8 | CN1/C(=C/C=C2\CCC3CCC(/C=C/C4=[N+](C)c5ccccc5C4(C)C)=C(Cl)C3=C2Cl)C(C)(C)c2ccccc21 (centres unmarked) [N-methyl-NIR-990] | – | – | 922 nm | 46,886 M^−1cm^−1 | – | – | 960 nm | – | – | – | organic soluble | – | – | – | – | 940 nm | 134,658 M^−1cm^−1 | 990 nm
9 | CC1(C)C(/C=C/C2=C3Oc4ccc(CCC(=O)O)cc4OC4=C3C(CC2)CC/C4=C\C=C2\N(CCCCS(=O)(=O)[O-])c3ccc(S(=O)(=O)[O-])cc3C2(C)C)=[N+](CCCCS(=O)(=O)[O-])c2ccc(S(=O)(=O)[O-])cc21.[Na+].[Na+].[Na+] (centres unmarked) [NIR-900-Et] | 864 nm | 148,000 M^−1cm^−1 | 860 nm | 253,000 M^−1cm^−1 | 856 nm | 900 nm | 890 nm | 900 nm | 172,000 M^−1cm^−1 | – | – | – | – | – | – | – | – | –
10 | CC1(C)C(/C=C/C2=C3Sc4ccccc4SC4=C3C(CC2)CC/C4=C\C=C2\N(CCCCS(=O)(=O)[O-])c3ccc(S(=O)(=O)[O-])cc3C2(C)C)=[N+](CCCCS(=O)(=O)[O-])c2ccc(S(=O)(=O)[O-])cc21.[Na+].[Na+].[Na+] (centres unmarked) [NIR-950] | 902 nm | 128,000 M^−1cm^−1 | 890 nm | 193,000 M^−1cm^−1 | 880 nm | 955 nm | 960 nm | 950 nm | 79,000 M^−1cm^−1 | – | – | – | – | – | – | – | – | –
